Test results: patent publication US4886806A, “Flavone-3-carboxylic acids compounds and pharmaceutical compositions containing them” (Kali-Chemie Pharma GmbH, priority 1987, dated 1989)

Key:
Format in all cases: cell-based
[1] = system: oxygen radical-forming activity of activated peritoneal exudate cells (PEC) of mice; experiment: Peak chemiluminescence (CL) test: inhibition of oxygen radical liberation from activated peritoneal exudate cells; conditions: Mus musculus, 10^-4 Mol substance/l, added at peak of cell activity, read-out: Inhibition in vitro of the oxygen radical liberation, Chemiluminescence Test % inhibition, Pk. CL
Method: 1. To determine the inhibiting effect on the oxygen radical-forming activity of inflamed cells, the in vitro inhibition of the release of oxygen radicals from activated peritoneal exudate cells (=PEC) of mice was determined in the chemiluminescence (CL) test according to the method of Mueller-Peddinghaus (Int. J. Immunopharmac. 6, 455-466 (1984)). […] The intensity of the chemiluminescence is a measurement of the oxygen radical content in the suspension and thus the degree of activity of the inflamed cells. In this, three functionally different parameters are detected, the spontaneous CL, the induced CL and the peak CL. The spontaneous CL and the induced CL on the one hand and the peak CL on the other hand differ from each other because in the first two parameters the test substances are in contact with the cells for a 30 minute preincubation period before the inflammation irritant is added, whereas with the peak CL the cells are first stimulated, and the test substance is added at the peak of their activity. The measurement of the spontaneous CL thus detects the influence of the test substance on the relative rest activity of inflamed cells, the induced CL represents the effect of the test substances on the activatability of the cells and the inhibition of the peak CL indicates the effect of the test substances on the maximum activity of the inflamed cells. 1.1 Production of PEC suspension used in the test. In order to induce the PEC formation, female mice of 20-25 g body weight were each injected i.p. with 2 ml of a 3% solution of thioglycollate in sterile isotonic sodium chloride solution. Twenty four hours after the thioglycollate injection the cells, which predominantly consisted of polymorphonuclear leucocytes, were recovered by washing out of the abdominal cavity and washed twice. As cell culture medium there was added a commercially available solution under the designation RPMI 1640 (pH 7.2) (produced by Flow Laboratories, […], Germany), which contains 10% fetal calf serum (FCS, produced by Seromed GmbH, Munich, Germany) 18 μmol/l sodium bicarbonate and 2 μmol/l L-glutamine. The cell pellets of four animals each time were resuspended in cell culture medium, collected together and the suspension was made up to 2×10^6 cells per ml with cell culture medium. The cell suspensions were kept under ice cooling until their use the same day. 1.2 Production of the complement opsonized zymosan (=ZyC3 b) suspension used for activation. 200 mg zymosan (glycoprotein mixture isolated from the cell walls of brewer's yeast, Sacchomyces […], produced by Sigma Chemical Co., Munich, Germany) were suspended in 10 ml phosphate buffer solution according to Dulbecco (produced by Flow Laboratories, […], Germany), well stirred and heated for thirty minutes in a water bath to 100° C. After cooling, it was centrifuged for five minutes at 4° C. and at 600 ×g and the supernatant was discarded. The sediment was resuspended in 50 ml human serum and incubated for thirty minutes at 37° C. in a shaking water bath. Then it was centrifuged for five minutes at 600 ×g and 420 C., the supernatant decanted and the sediment washed with phosphate buffer solution. The working suspension of 8×10^-3 g ZyC3 b/ml was produced from the sediment by dilution with phosphate buffer solution (Mueller-Peddinghaus et al., Zbl. Vet. Med. B. 30, 559-575). 1.3 Chemiluminescence (CL) measurement (Peak-CL). The PEC suspension was divided into samples of 100 μl each, placed in test tubes, and these were incubated for ten minutes at a temperature of 3720 C. in a measurement device (Chemiluminescence analyzer, Laboratorium Prof. Berthold, Wildbad, Germany). Then in order to amplify the chemiluminescence, 100 μl lucigenin solution was added (final concentration 1.54×10^-4 mol/l) and incubated for 16 more minutes. The cells were then activated by the addition of 100 μl of the ZyC3 b suspension produced as described in section 1.2 plus 100 μl phosphate buffer solution. […]

[2] = system: oxygen radical-forming activity of peritoneal exudate cells (PEC) of mice; experiment: Spontaneous CL and induced CL chemiluminescence test: inhibition of oxygen radical liberation from peritoneal exudate cells (30 min preincubation); design: concentration or dose not given beside the values; conditions: for Inhibition in vitro of the oxygen radical liberation, Chemiluminescence Test % inhibition, Ind. CL: induced CL, after ZyC3b activation; for Inhibition in vitro of the oxygen radical liberation, Chemiluminescence Test % inhibition, Spnt. CL: spontaneous CL, before ZyC3b
Method: 1. To determine the inhibiting effect on the oxygen radical-forming activity of inflamed cells, the in vitro inhibition of the release of oxygen radicals from activated peritoneal exudate cells (=PEC) of mice was determined in the chemiluminescence (CL) test according to the method of Mueller-Peddinghaus (Int. J. Immunopharmac. 6, 455-466 (1984)). […] The intensity of the chemiluminescence is a measurement of the oxygen radical content in the suspension and thus the degree of activity of the inflamed cells. In this, three functionally different parameters are detected, the spontaneous CL, the induced CL and the peak CL. The spontaneous CL and the induced CL on the one hand and the peak CL on the other hand differ from each other because in the first two parameters the test substances are in contact with the cells for a 30 minute preincubation period before the inflammation irritant is added, whereas with the peak CL the cells are first stimulated, and the test substance is added at the peak of their activity. The measurement of the spontaneous CL thus detects the influence of the test substance on the relative rest activity of inflamed cells, the induced CL represents the effect of the test substances on the activatability of the cells and the inhibition of the peak CL indicates the effect of the test substances on the maximum activity of the inflamed cells. 1.1 Production of PEC suspension used in the test. In order to induce the PEC formation, female mice of 20-25 g body weight were each injected i.p. with 2 ml of a 3% solution of thioglycollate in sterile isotonic sodium chloride solution. Twenty four hours after the thioglycollate injection the cells, which predominantly consisted of polymorphonuclear leucocytes, were recovered by washing out of the abdominal cavity and washed twice. As cell culture medium there was added a commercially available solution under the designation RPMI 1640 (pH 7.2) (produced by Flow Laboratories, […], Germany), which contains 10% fetal calf serum (FCS, produced by Seromed GmbH, Munich, Germany) 18 μmol/l sodium bicarbonate and 2 μmol/l L-glutamine. The cell pellets of four animals each time were resuspended in cell culture medium, collected together and the suspension was made up to 2×10^6 cells per ml with cell culture medium. The cell suspensions were kept under ice cooling until their use the same day. 1.2 Production of the complement opsonized zymosan (=ZyC3 b) suspension used for activation. 200 mg zymosan (glycoprotein mixture isolated from the cell walls of brewer's yeast, Sacchomyces […], produced by Sigma Chemical Co., Munich, Germany) were suspended in 10 ml phosphate buffer solution according to Dulbecco (produced by Flow Laboratories, […], Germany), well stirred and heated for thirty minutes in a water bath to 100° C. After cooling, it was centrifuged for five minutes at 4° C. and at 600 ×g and the supernatant was discarded. The sediment was resuspended in 50 ml human serum and incubated for thirty minutes at 37° C. in a shaking water bath. Then it was centrifuged for five minutes at 600 ×g and 420 C., the supernatant decanted and the sediment washed with phosphate buffer solution. The working suspension of 8×10^-3 g ZyC3 b/ml was produced from the sediment by dilution with phosphate buffer solution (Mueller-Peddinghaus et al., Zbl. Vet. Med. B. 30, 559-575). 1.3 Chemiluminescence (CL) measurement (Peak-CL). […] At the end of this preincubation phase, 100 μl lucigenin were added, and in the course of the subsequent sixteen minute incubation phase the spontaneous CL parameter was determined with two measuring points. Then 100 μl ZyC3 b+100 μl phosphate buffer were added, and during the course of the subsequent twenty-four minute cell activation the induced CL parameter was measured with three measuring points. All measurements were determined twice. The parameters spontaneous CL and induced CL were determined on the same day with two separate cell pools.

[3] = system: Lipoxygenase; experiment: LTB4 synthesis and inhibition test (lipoxygenase inhibition in vitro) in polymorphonuclear leucocytes; conditions: Homo sapiens, PMNL, 10^-4 Mol/l, Ca-ionophore A 23187, arachidonic acid, read-out: Lipoxygenase inhib. in vitro, % inhibition of the LTB4 synthesis at 10^-4 Mol/l
Method: 2. In order to investigate the lipoxygenase-inhibiting properties, the inhibiting effect of the substances on the biosynthesis of leucotriene B4 (=LTB4) from arachidonic acid by activated inflamed cells was determined in vitro. Leucotriene B4, a dihydroxy fatty acid which plays an important role not only in the inflammation but also in allergic reactions was oxidatively formed, starting from arachidonic acid, by oxidation through the action of the enzyme lipoxygenase.
LTB4 Synthesis and Inhibition Test.
The combined extracts were evaporated under vacuum to dryness and the residue was taken up in 0.5 ml 30% aqueous methanol and was analyzed with the aid of high pressure liquid chromatography with phase reversal (=reversed phase-HPLC). The stationary phase (=separating medium) consisted of silica gel containing octadecyl groups chemically bound thereto (=RSIL C18 HP; produced by Autech, Darfield, Ill.). The solvent mixture is methanol:water:acetic acid (67:33:0.1; v/v/v), which had been adjusted to a pH value of 6.2 with NH3 /H2 O. The flow velocity was 1 ml/min. […] The LTB4 signals were compared with those of the control (cell incubation with solvent) and reported as percent inhibition of LTB4 synthesis compared with the controls.

Structure (SMILES) | inhibition at 100 µM (stock) [1] [%] | Inhibition in vitro of the oxygen radical liberation, Chemiluminescence Test % inhibition, Ind. CL [2] [%] | Inhibition in vitro of the oxygen radical liberation, Chemiluminescence Test % inhibition, Spnt. CL [2] [%] | inhibition at 100 µM [3] [%]
O=C(NCCCC[N+]1([O-])CC[N+]([O-])(c2cccc[n+]2[O-])CC1)c1c(-c2ccccc2)oc2ccccc2c1=O (stereo not shown) [Example 26] | 10 | 3 | 13 | 43
O=C(c1c(-c2ccc(O)c(O)c2)oc2ccccc2c1=O)N1CCN(c2ccccn2)CC1 [Example 29] | 75 | 74 | 65 | 97
O=C(c1c(-c2ccccc2Cl)oc2ccccc2c1=O)N1CCN(c2ccccn2)CC1 [Example 35] |  |  |  | 100
CC(=O)Oc1cc(-c2oc3ccccc3c(=O)c2C(=O)N2CCN(Cc3ccccc3)CC2)cc(OC(C)=O)c1OC(C)=O [Example 42b] | 99 | 100 | 99 | 100
